# According to patent publication US20230220021A1, “CYCLIC PEPTIDE INHIBITORS OF PSD-95 AND USES THEREOF” (University of Copenhagen, priority 2020, published 2023):
# Like-named read-outs stand apart in the source and are kept apart here. Where a SMILES comes first, the peptide text is derived from it. [ ]: non-standard residue; d: D form.
# Target: T1, PSD-95-PDZ2 (Homo sapiens, UniProt P78352)
# T1 construct: 7xHis (N); made in house; host or cells: Escherichia coli B21 pLys (for the mutants, 'as previously described')
# Experiment: Fluorescence polarization (FP) competition assay against cyclic nNOS TAMRA probe
# Type: binding
# Settings: for Ki: cyclic nNOS TAMRA probe, mean of triplicates, N.B. = not binding; for fold improved binding affinity: N-methylation; for Relative Ki (Ki mut/Ki WT): FP inhibition constant normalized to WT value
# T1 sequence (P78352 160-246 limits assumed): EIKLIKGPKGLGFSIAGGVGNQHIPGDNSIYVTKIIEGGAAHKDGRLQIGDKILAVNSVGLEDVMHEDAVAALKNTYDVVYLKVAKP
Ki (FP competition),"Ki (FP competition, read-out: Ki)",Molecule,other results
N.B.,–,85 (TXLETTFTGDGTPKTIRVTQPGQ; cyclized peptide; (2)..(2) X is N-Me-H; (21)..(21) is D-AA) [compound 85],–
N.B.,–,86 (THXETTFTGDGTPKTIRVTQPGQ; cyclized peptide; (3)..(3) X is N-Me-L; (21)..(21) is D-AA) [compound 86],–
N.B.,–,87 (THLXTTFTGDGTPKTIRVTQPGQ; cyclized peptide; (4)..(4) X is N-Me-E; (21)..(21) is D-AA) [compound 87],–
N.B.,–,90 (THLETTXTGDGTPKTIRVTQPGQ; cyclized peptide; (7)..(7) X is N-Me-F; (21)..(21) is D-AA) [compound 90],–
N.B.,–,104 (THLEXTFTGDGTPKTIRVTQPGQ; cyclized peptide; (5)..(5) X is pT; (21)..(21) is D-AA) [compound 104],–
N.B.,–,105 (THLETXFTGDGTPKTIRVTQPGQ; cyclized peptide; (6)..(6) X is pT; (21)..(21) is D-AA) [compound 105],–
N.B.,–,108 (THLETTFTGDGTPKXIRVTQPGQ; cyclized peptide; (15)..(15) X is pT; (21)..(21) is D-AA) [compound 108],–

# The remaining lines, values behind:
Molecule,Ki (FP competition),"Ki (FP competition, read-out: Ki)",other results
80 (THLEXTFTGDGTPKTIRVTQPGQ; cyclized peptide; (5)..(5) X is AlloT; (21)..(21) is D-AA) [compound 80],N.B.,–,–
CC[C@H](C)[C@@H]1NC(=O)[C@H]([C@@H](C)O)NC(=O)[C@H](CCCCN)NC(=O)[C@@H]2CCCN2C(=O)[C@H]([C@@H](C)O)NC(=O)CNC(=O)[C@H](CC(=O)O)NC(=O)CNC(=O)[C@H]([C@@H](C)O)NC(=O)[C@H](Cc2ccccc2)NC(=O)[C@H]([C@@H](C)O)NC(=O)[C@H]([C@@H](C)O)NC(=O)[C@H](CCC(=O)O)NC(=O)[C@H](CC(C)C)NC(=O)[C@H](Cc2c[nH]cn2)NC(=O)[C@H]([C@@H](C)O)N(C)C(=O)[C@H](CCC(N)=O)NC(=O)CNC(=O)[C@H]2CCCN2C(=O)[C@H](CCC(N)=O)NC(=O)[C@H]([C@@H](C)O)NC(=O)[C@H](C(C)C)NC(=O)[C@H](CCCNC(=N)N)NC1=O [SEQ ID NO: 84],–,–,"fold lowered (decreased) binding affinity of the cyclic peptide (FP competition, relative to unsubstituted cyclic peptide): 5 fold"
CC[C@H](C)[C@@H]1NC(=O)[C@H]([C@@H](C)O)NC(=O)[C@H](CCCCN)N(C)C(=O)[C@@H]2CCCN2C(=O)[C@H]([C@@H](C)O)NC(=O)CNC(=O)[C@H](CC(=O)O)NC(=O)CNC(=O)[C@H]([C@@H](C)O)NC(=O)[C@H](Cc2ccccc2)NC(=O)[C@H]([C@@H](C)O)NC(=O)[C@H]([C@@H](C)O)NC(=O)[C@H](CCC(=O)O)NC(=O)[C@H](CC(C)C)NC(=O)[C@H](Cc2c[nH]cn2)NC(=O)[C@H]([C@@H](C)O)NC(=O)[C@H](CCC(N)=O)NC(=O)CNC(=O)[C@H]2CCCN2C(=O)[C@H](CCC(N)=O)NC(=O)[C@H]([C@@H](C)O)NC(=O)[C@H](C(C)C)NC(=O)[C@H](CCCNC(=N)N)NC1=O [SEQ ID NO: 96],–,500 ± 100 nM,fold improved binding affinity (FP competition): 2 fold
CC[C@H](C)[C@@H]1NC(=O)[C@H]([C@@H](C)O)NC(=O)[C@H](CCCCN)NC(=O)[C@@H]2CCCN2C(=O)[C@H]([C@@H](C)O)NC(=O)CNC(=O)[C@H](CC(=O)O)NC(=O)CNC(=O)[C@H]([C@@H](C)O)NC(=O)[C@H](Cc2ccccc2)NC(=O)[C@H]([C@@H](C)O)NC(=O)[C@H]([C@@H](C)O)NC(=O)[C@H](CCC(=O)O)NC(=O)[C@H](CC(C)C)NC(=O)[C@H](Cc2c[nH]cn2)NC(=O)[C@H]([C@@H](C)O)NC(=O)[C@H](CCC(N)=O)NC(=O)CNC(=O)[C@H]2CCCN2C(=O)[C@H](CCC(N)=O)NC(=O)[C@H]([C@@H](C)O)N(C)C(=O)[C@H](C(C)C)NC(=O)[C@H](CCCNC(=N)N)NC1=O [SEQ ID NO: 101],–,600 ± 100 nM,fold improved binding affinity (FP competition): 2 fold
CC[C@H](C)[C@@H]1NC(=O)[C@H]([C@@H](C)O)NC(=O)[C@H](CCCCN)NC(=O)[C@@H]2CCCN2C(=O)[C@H]([C@@H](C)O)NC(=O)CNC(=O)[C@H](CC(=O)O)NC(=O)CNC(=O)[C@H]([C@@H](C)O)NC(=O)[C@H](Cc2ccccc2)NC(=O)[C@H]([C@@H](C)O)NC(=O)[C@H]([C@@H](C)O)NC(=O)[C@H](CCC(=O)O)NC(=O)[C@H](CC(C)C)NC(=O)[C@H](Cc2c[nH]cn2)NC(=O)[C@H]([C@@H](C)O)NC(=O)[C@H](CCC(N)=O)NC(=O)CNC(=O)[C@H]2CCCN2C(=O)[C@H](CCC(N)=O)NC(=O)[C@H]([C@@H](C)O)NC(=O)[C@H](C(C)C)NC(=O)[C@H](CCCNC(=N)N)NC1=O [SEQ ID NO: 433],–,1500 ± 200 nM,–
CC[C@H](C)[C@@H]1NC(=O)[C@H]([C@@H](C)O)NC(=O)[C@H](CCCCN)NC(=O)[C@@H]2CCCN2C(=O)[C@H]([C@@H](C)O)NC(=O)CNC(=O)[C@H](CC(=O)O)NC(=O)CNC(=O)[C@H](Cc2c[nH]c3ccccc23)NC(=O)[C@H](Cc2ccccc2)NC(=O)[C@H]([C@@H](C)O)NC(=O)[C@H]([C@@H](C)O)NC(=O)[C@H](CCC(=O)O)NC(=O)[C@H](CC(C)C)NC(=O)[C@H](Cc2c[nH]cn2)NC(=O)[C@H]([C@@H](C)O)NC(=O)[C@H](CCC(N)=O)NC(=O)CNC(=O)[C@H]2CCCN2C(=O)[C@H](CCC(N)=O)NC(=O)[C@H]([C@@H](C)O)NC(=O)[C@H](C(C)C)NC(=O)[C@H](CCCNC(=N)N)NC1=O [compound 18] (cyclo(THLETTFWGDGTPKTIRVTQ[dP]GQ)),–,720 nM,Relative Ki (Ki mut/Ki WT): 0.48
CC[C@H](C)[C@@H]1NC(=O)[C@H]([C@@H](C)O)NC(=O)[C@H](CCCCN)NC(=O)[C@@H]2CCCN2C(=O)[C@H]([C@@H](C)O)NC(=O)CNC(=O)[C@H](CC(=O)O)NC(=O)CNC(=O)[C@H](CC(=O)O)NC(=O)[C@H](Cc2ccccc2)NC(=O)[C@H]([C@@H](C)O)NC(=O)[C@H]([C@@H](C)O)NC(=O)[C@H](CCC(=O)O)NC(=O)[C@H](CC(C)C)NC(=O)[C@H](Cc2c[nH]cn2)NC(=O)[C@H]([C@@H](C)O)NC(=O)[C@H](CCC(N)=O)NC(=O)CNC(=O)[C@H]2CCCN2C(=O)[C@H](CCC(N)=O)NC(=O)[C@H]([C@@H](C)O)NC(=O)[C@H](C(C)C)NC(=O)[C@H](CCCNC(=N)N)NC1=O [compound 19] (cyclo(THLETTFDGDGTPKTIRVTQ[dP]GQ)),–,950 nM,Relative Ki (Ki mut/Ki WT): 0.63
CC[C@H](C)[C@@H]1NC(=O)[C@H]([C@@H](C)O)NC(=O)[C@H](CCCCN)NC(=O)[C@@H]2CCCN2C(=O)[C@H]([C@@H](C)O)NC(=O)CNC(=O)[C@H](CC(=O)O)NC(=O)CNC(=O)[C@H]([C@@H](C)O)NC(=O)[C@H](Cc2ccccc2)NC(=O)[C@H]([C@@H](C)O)NC(=O)[C@H]([C@@H](C)O)NC(=O)[C@H](CCC(=O)O)NC(=O)[C@H](CCCCN)NC(=O)[C@H](Cc2c[nH]cn2)NC(=O)[C@H]([C@@H](C)O)NC(=O)[C@H](CCC(N)=O)NC(=O)CNC(=O)[C@H]2CCCN2C(=O)[C@H](CCC(N)=O)NC(=O)[C@H]([C@@H](C)O)NC(=O)[C@H](C(C)C)NC(=O)[C@H](CCCNC(=N)N)NC1=O [compound 22] (cyclo(THKETTFTGDGTPKTIRVTQ[dP]GQ)),–,–,Relative Ki (Ki mut/Ki WT): 0.80
